Data from US20090018157A1, “Chemical compounds” (priority 2003, published 2009).

Tests used:
glucokinase (GLK) = biological target: T1, glucokinase (GLK) (Homo sapiens, UniProt P35557); experiment: biochemical
T1 sequence (P35557 1-466 isoform P35557-2): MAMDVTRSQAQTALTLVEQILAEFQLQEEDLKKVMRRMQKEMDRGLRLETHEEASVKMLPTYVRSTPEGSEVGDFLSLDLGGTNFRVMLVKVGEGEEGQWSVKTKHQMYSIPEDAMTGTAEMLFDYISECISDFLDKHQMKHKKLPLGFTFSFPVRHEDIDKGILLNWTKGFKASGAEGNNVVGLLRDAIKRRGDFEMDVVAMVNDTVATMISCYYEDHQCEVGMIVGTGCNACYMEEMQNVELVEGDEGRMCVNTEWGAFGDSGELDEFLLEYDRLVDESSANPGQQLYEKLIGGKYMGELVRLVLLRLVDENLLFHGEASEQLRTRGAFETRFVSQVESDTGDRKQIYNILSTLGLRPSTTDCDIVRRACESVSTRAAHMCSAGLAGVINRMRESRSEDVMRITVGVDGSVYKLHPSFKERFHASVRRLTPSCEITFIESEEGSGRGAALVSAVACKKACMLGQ

[1] = Estimation of plasma half-life; assay type: in vivo; conditions: rat, typically determined following intravenous administration, read-out: t½ (half life in plasma) (converted)
Source text: The plasma half-life is the time taken for the concentration of compound in the plasma to decline to half of its original value. This is typically determined following intravenous administration of the test compound, followed by measurement of the compound concentrations in plasma samples as described above. The plasma half-life is estimated from a semilogarithmic plot, plotting the log of the plasma concentration (lnCp) against sample time (t, linear). The apparent first-order elimination rate constant, k, is equal to the slope of the line, and the elimination half-life (t½) is […] (Gibaldi, M and Perrier, D, 1975 Pharmacokinetics, Marcel Dekker, New York): […]

[2] = Plasma levels following oral administration to rats; assay type: in vivo; conditions: rat, normalised dose of 1 mg of compound per kilogram of rat body weight
Protocol: Planetary Milled compounds [15 mins, 500 rpm, 5 Zirconium Balls, in a Puluerisette 7 Mill (Glen Creston Ltd, Stanmore, Middlesex, UK)] were suspended in 0.5% HPMC Tween and dosed to High Fat Fed (Research Diets, D12451, ad lib feeding 14 days) Female Alderley Park Zucker or Alderley Park Wistar rats at rate of 5 mls/kg, at doses between 0.3 and 10 mg/kg by oral gavage.
Samples of plasma were obtained either by conscious blood sampling or terminal blood sampling as follows:
Conscious blood sampling (for compound level or blood chemistry)—Intravenous blood samples were taken from tail vein using 600 μl Starstedt Multivette (EDTA) and 22 G needle at the required time point. […]
The reconstituted samples were then analysed using high performance liquid chromatography with tandem mass spectrometry detection (HPLC-MS-MS)”. […]
The concentration of test samples was determined from the ratio of the peak height of the test sample to the peak height of the internal standard. The concentration of the test sample was calculated with reference to a standard curve relating the ratio to the concentration prepared by using known concentrations of test sample added to samples of rat plasma using (3-isopropoxy-5-benzyoxy-benzoyl)amino pyridine 3-carboxylic acid as an internal standard, treated as described above.

[3] = Plasma protein binding by equilibrium dialysis; assay type: in vitro ADME; conditions: rat, 18 hours at 37° C., plasma vs isotonic phosphate buffer pH 7.4, read-out: % free in plasma
Protocol: The plasma protein binding of compounds was measured using the equilibrium dialysis technique (W. Lindner et al, J. Chromatography, 1996, 677, 1-28). Compound was dialysed at a concentration of 20 μM for 18 hours at 37° C. with plasma and isotonic phosphate buffer pH 7.4 (1 ml of each in the dialysis cell). A Spectrum® 20-cell equilibrium dialyser was used together with Teflon, semi-micro dialysis cells and Spectra/Por®2 membrane discs with a molecular weight cut off 12-14000 Dalton, 47 mm (supplied by PerBio Science UK Ltd, Tattenhall, Cheshire). Plasma and buffer samples are removed following dialysis and analysed using HPLCUV/MS (high performance liquid chromatography with UV and mass spec detection) to give the % free level in plasma.

SMILES: COC[C@H](C)Oc1cc(Oc2ccc3c(c2)OCO3)cc(C(=O)Nc2ccc(C(=O)O)cn2)c1 [Example 2, 6-{[(3-(1,3-benzodioxol-5-yloxy)-5-{[(1S)-1-methyl-2-(methyloxy)ethyl]oxy}phenyl)carbonyl]amino}pyridine-3-carboxylic acid]
- EC50 (glucokinase (GLK)): 60 nM
- half-life [1]: 6.4 h
- Peak Blood levels (including both bound and free) [2]: 2.7 µM
- fraction unbound at 18 hours, 20 μM [3]: 0.0026
